Laboratory results from patent US20180370912A1, “COMPOUNDS AND METHODS FOR TREATING DISEASES MEDIATED BY PROTEIN DISULFIDE ISOMERASE” (Beth Israel Deaconess Medical Center, Inc., priority 2017, published 2018).

Tests used:
[1] = system: platelet accumulation at sites of laser-induced injury; experiment: Thrombus formation in cremaster arterioles after laser-induced injury, intravital microscopy; type: in vivo; conditions: mice
Description: Intravital video microscopy of the cremaster muscle microcirculation was performed as described previously in Falati, S., Gross, P., Merrill-Skoloff, G., Furie, B. C. & Furie, Nat Med 8, 1175-81. (2002); and Jasuj a, R. et al., J Clin Invest 122, 2104-2113 (2012). Digital images were captured with an Orca Flash 4.0v2 sCMOS camera (Hamamatsu Photonics K.K., Shizuoka Pref., Japan). Representative images are presented, but the median curves include the full data. The kinetics of platelet thrombus formation were analyzed by determining median fluorescence values over time in ˜30-40 thrombi in three mice.
Two hours prior to surgery, 100 mg/kg of the suicide P450 inhibitor 1-aminobenzotriazole (ABT) was administered intraperioneally to each mouse. The cremaster muscle was then surgically exposed. Prior to arteriolar wall injury, DyLight-labeled antibodies were infused intravenously together with drug or vehicle control. Injury to a cremaster arteriolar vessel (30-50-μm diameter) was induced with a MicroPoint laser system Andor Andor Technology, Ltd., Belfast Ireland) focused through the microscope objective, parfocal with the focal plane and tuned to 440 nm through a dye cell containing 5 mM coumarin in methanol. Data were captured digitally from two fluorescence channels, 488/520 nm and 647/670 nm, as well as a brightfield channel Data acquisition was initiated both prior to and following an ablation laser pulse for each injury. The microscope system was controlled and images were collected and analyzed using SlideBook 6.0 (Intelligent Imaging Innovations, Denver, Colo.).
Prior to induction of the thrombus but after injection of the fluorescently labeled antibody, approximately 30 time points were recorded. Subsequently, a thrombus is initiated and recorded for approximately 170 seconds. […] The mean of maximal intensity values in the upstream region for each frame is calculated and used as the threshold to define those pixels containing signal. […] Using this information, the actual integrated intensity for each frame is calculated according to the following formula: […]

ERp5 = biological target: T1, ERp5 (Homo sapiens, UniProt Q15084); experiment: Maleimide-polyethylene glycol-2-biotin (MPB) binding; conditions: 150 μM inhibitor, FIG. 2c, FIG. 8
T1 construct: recombinant His-tagged full-length ERp5, ERp72 and PDI domain fragments; His; made in house; host or cells: Escherichia coli Origami B (DE3), pET-15b
T1 sequence (Q15084 20-440): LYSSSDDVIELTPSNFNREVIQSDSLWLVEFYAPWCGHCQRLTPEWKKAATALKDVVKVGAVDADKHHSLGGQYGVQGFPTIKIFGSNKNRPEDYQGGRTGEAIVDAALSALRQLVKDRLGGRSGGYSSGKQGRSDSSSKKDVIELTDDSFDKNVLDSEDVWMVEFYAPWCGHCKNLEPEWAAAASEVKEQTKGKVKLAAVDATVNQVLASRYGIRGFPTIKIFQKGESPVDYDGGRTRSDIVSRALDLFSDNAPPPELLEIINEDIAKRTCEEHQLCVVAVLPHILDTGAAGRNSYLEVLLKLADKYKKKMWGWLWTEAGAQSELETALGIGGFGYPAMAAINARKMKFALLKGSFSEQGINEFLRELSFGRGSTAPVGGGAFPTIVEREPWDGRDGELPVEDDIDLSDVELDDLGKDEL
Description: (§1) Maleimide-Polyethanol glycol-2-Biotin (MPB) binding experiments were performed in a reaction volume of 37.5 μL with 5 μM of thiol isomerase or bovine serum albumin (BSA) in Tris-buffered saline (TBS), in the presence and absence of 1 mM of N-ethylmaleimide (NEM) or bacitracin, and 150 μM of the mentioned other inhibitors. The reaction mixture was incubated at 37° C. for 1 hour. Subsequently, the reaction mixtures were incubated with 25 μM of MPB. The labeling was performed for 20 minutes at 25° C. A total of 12.5 μL of 4× Laemmli Sample Buffer with 5% β-mercaptoethanol was added to each of the samples, followed by heating at 95° C. for 10 minutes. From each sample, 10 μL was loaded on a 12% SDS-PAGE gel, followed by transfer on a nitrocellulose membrane. After blocking the membrane with TBS-T containing 5% BSA for one hour, the membrane was incubated with a 1:2000 dilution of Cy5-tagged Streptavidin for an hour in the dark. Detection of the immunoblots was performed using ImageQuant LAS 4000 and analysis was performed using ImageQuant TL software.

ERp57 = biological target: T2, ERp57 (Homo sapiens, UniProt P30101); experiment: as above; conditions: 150 μM inhibitor, FIG. 2c, FIG. 8
T2 construct: FLAG; made in house; host or cells: Escherichia coli Origami B (DE3), pET-15b
T2 sequence (P30101 25-505): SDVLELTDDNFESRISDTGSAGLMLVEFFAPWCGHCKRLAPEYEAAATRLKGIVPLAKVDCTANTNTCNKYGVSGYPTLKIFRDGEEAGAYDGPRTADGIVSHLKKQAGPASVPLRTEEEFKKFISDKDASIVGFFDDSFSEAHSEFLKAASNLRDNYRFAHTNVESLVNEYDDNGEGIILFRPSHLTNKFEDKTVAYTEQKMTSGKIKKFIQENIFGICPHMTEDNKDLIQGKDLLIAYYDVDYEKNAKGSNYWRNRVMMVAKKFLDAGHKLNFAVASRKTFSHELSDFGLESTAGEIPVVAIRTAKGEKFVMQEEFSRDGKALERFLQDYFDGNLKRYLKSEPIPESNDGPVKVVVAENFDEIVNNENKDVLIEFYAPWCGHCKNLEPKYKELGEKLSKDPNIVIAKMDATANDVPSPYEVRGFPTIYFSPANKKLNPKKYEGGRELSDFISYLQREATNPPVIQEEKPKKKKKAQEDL
Description: as §1

thioredoxin = biological target: T3, thioredoxin (Homo sapiens, UniProt P10599); experiment: as above; conditions: 150 μM inhibitor, FIG. 2c, FIG. 8
T3 sequence (P10599 1-105): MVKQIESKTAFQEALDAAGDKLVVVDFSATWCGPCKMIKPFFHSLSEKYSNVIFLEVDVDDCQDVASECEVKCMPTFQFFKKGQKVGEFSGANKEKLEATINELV
Description: as §1

SMILES | tolerability in vivo ([1]; 15 mg/kg infusion) | inhibition of platelet accumulation at sites of laser-induced injury ([1]; infusion 15 mg/kg body weight, p=0.02, FIG. 3c) | thrombus formation in vivo ([1]; laser injury of cremaster arterioles) | reaction of MPB with the catalytic cysteines of ERp5 (ERp5) | reaction of MPB with the catalytic cysteines of ERp57 (ERp57) | reaction of MPB with the catalytic cysteines of thioredoxin (thioredoxin)
CCOC(=O)c1c(CNCCN(CC)CC)n(-c2ccccc2)c2cc(Br)c(O)cc12 [bepristat 2a] | tolerated in vivo | 14.9 % of controls | potently inhibits thrombus formation |  |  | 
C#CC(=O)N(c1ccc(OC)cc1OC)C(C(=O)NCC(=O)OCC)c1cccs1 (stereo not drawn) [PACMA-31, N-(2,4-Dimethoxyphenyl)-N-(1-oxo-2-propyn-1-yl)-2-(2-thienyl)glycyl-glycine ethyl ester, reference compound] |  |  |  | interfered with the reaction of maleimide-polyethylene glycol-2-biotin (MPB) | interfered with the reaction of maleimide-polyethylene glycol-2-biotin (MPB) | interfered with the reaction of maleimide-polyethylene glycol-2-biotin (MPB)
